Measured values: US20050031540A1, “Visco dye” (priority 2001, published 2005)

Assays:
[1] = system: anterior capsule of the crystalline lens; experiment: Vital dye staining of the anterior lens capsule to visualise the CCC; settings: absence of a red fundus reflex
Source text: It is possible to use a number of vital dyes already known today, but also such which may become available in the future as the visualising agent. […] These include azophlozin, basic blue, Bismarck brown, basis red, bengal red, brilliant cresyl blue, eosin, fluorescein, gentian violet, indocyanine green, Janus green, methylene green, methylene blue, neutral red and others.

[2] = system: corneal endothelial cells; settings: earlier use to stain corneas prior to corneal transplants; cited from earlier work

In the case of `CN(C)c1ccc2nc3ccc(=[N+](C)C)cc-3sc2c1` [methylene blue], the “staining of the anterior capsule sufficient to visualise the CCC” value (shortened to “staining … to visualise the CCC”) ([1]; dye 5%) is reported as “stained the anterior capsule sufficiently to visualise the CCC”.
In the case of `CN(C)c1ccc(C(=C2C=CC(=[N+](C)C)C=C2)c2ccc(N(C)C)cc2)cc1` [gentian violet], the “staining … to visualise the CCC” value ([1]; dye 2%) is reported as “stained the anterior capsule sufficiently to visualise the CCC”.
In the case of `Cc1cc(-c2ccc(/N=N/c3c(S(=O)(=O)O)cc4cc(S(=O)(=O)O)cc(N)c4c3O)c(C)c2)ccc1/N=N/c1c(S(=O)(=O)O)cc2cc(S(=O)(=O)O)cc(N)c2c1O` [trypan blue], the “tolerance of corneal endothelium to vital staining, endothelial cell counts” value [2] is listed as “without a reduction in endothelial cell counts” and the “staining … to visualise the CCC” value ([1]; dye 0.1%) is listed as “stained the anterior capsule sufficiently to visualise the CCC”.
In the case of brilliant cresyl blue, the “staining … to visualise the CCC” value ([1]; dye 1%) is reported as “stained the anterior capsule sufficiently to visualise the CCC”.
